Test results from patent US20240228446A1, “PREPARATION METHOD FOR BICYCLIC COMPOUND AND APPLICATION AS ANTIFUNGAL AGENT” (priority 2021, published 2024).
Values after ≈ are worked out from the molar mass of the structure shown.

How the values were obtained:
[1] = test system: Candida albicans ATCC MYA-2876; test: Minimal inhibitory concentration (MIC) test on fungal growth (CLSI M27, yeasts); assay type: cell-based; settings: lowest concentration inhibiting growth of yeast by 50%, 35° C., 24 hours, RPMI1640; for MIC: Candida albicans, read-out: MIC Candida albicans ATCC MYA-2876
Method: (§1) • RPMI1640 medium: Brand: Gibco, article number: 31800-014 • Sabouraud dextrose agar (SDA): Brand: Hope Bio, article number: HB0253-81 • Voriconazole: Brand: Adamas, article number: 22105A • Amphotericin B: Brand: AbCam, article number: ab141199
(§2) MIC test was conducted in accordance with the guidelines and requirements of CLSI M27 (for yeasts) and M38 (for Aspergillus).
(§3) Strain preparation: The strains were inoculated 1 day in advance by streaking on SDA plates with glycerol strains stored at −80° C. The strains were cultured at 35° C. and 40 to 60% humidity for 18 to 24 hours. Streak inoculation of Aspergillus fumigatus and Cryptococcus neoformans was required to be done 3 days and 2 days in advance, respectively.
(§4) Preparation of culture medium and compounds: The liquid culture medium RPMI was prepared with pure water, and 0.165 mol/L MOPS was added to adjust the pH to 7.0. The mixture was filtered with a 0.22 μm-membrane filter, sterilized, and stored at 4° C. (no more than 3 months). 0.85% physiological saline was sterilized at 121° C. for 30 min and then stored at room temperature (no more than 1 week). The compounds were dissolved in DMSO to 12.8 mg/mL and stored at −20° C.
For yeast, 3 to 5 colonies were selected from the SDA plate on the day of testing and fully suspended in 5 mL of sterilized 0.85% physiological saline. The turbidity of the bacterial suspension was measured with a turbidimeter, and the turbidity was adjusted to approximately 0.2. The bacterial suspension was 50-fold and 20-fold (1000-fold in total) diluted in RPMI1640 medium, respectively, to serve as the inoculum. The final inoculum concentration was 500 to 2500 CFU/mL.
(§5) The compound was diluted to the highest 800 μg/mL (or 400 μg/mL) with DMSO, and a 10-step 2-fold gradient dilution was performed, resulting in 11 concentrations. 2 μL of the gradient-diluted compound was transferred to the corresponding wells of a 96-well plate, and then 198 μL of the inoculum was transferred to the test plate. The plate was incubated at 35° C. for 24 hours (Aspergillus fumigatus and Cryptococcus neoformans were incubated for 48 and 72 hours, respectively).
(§6) After the incubation, the growth of the fungi was visually observed. The lowest concentration of the compound that inhibited the growth of yeast by 50% (inhibited Aspergillus by 100%) was defined as the minimum inhibitory concentration (MIC, μg/mL). A magnifying glass or reading at OD530 nm could be used to assist in determining the MIC. Photos were taken of the test plates for record keeping.

[2] = test system: Aspergillus fumigatus ATCC MYA-4609; test: Minimal inhibitory concentration (MIC) test on fungal growth (CLSI M38, Aspergillus); assay type: cell-based; settings: lowest concentration inhibiting Aspergillus by 100%, 35° C., 48 hours, RPMI1640; for MIC: Aspergillus fumigatus, read-out: MIC Aspergillus fumigatus ATCC MYA-4609
Method: as §1, §2, §3, §4
For Aspergillus, 5 mL of physiological saline was added to cover the mycelium, and the spores were gently scraped off with a spreader. The spore suspension was then transferred to a sterile test tube. An appropriate amount of spore suspension was taken and counted under a microscope using a hemocytometer. Spore concentration was adjusted to approximately 0.4 to 5×10^4 spores/mL using RPMI1640 medium.
as §5, §6

SMILES	MIC [1] [µg/mL]	MIC [2] [µg/mL]	MIC Aspergillus fumigatus ATCC MYA-4609 [2] [µg/mL]	MIC Candida albicans ATCC MYA-2876 [1] [µg/mL]
O[C@@](Cn1cncn1)(c1ccc(F)cc1F)C(F)(F)C12CC(c3ccc(OCC(F)(F)F)cc3)(C1)C2 (stereo in doubt) [Compound 2A]	≤ 0.0039	1 (≈ 1.94 µM)	–	–
CC(C12CC(c3ccc(OC[C@H](O)C(F)(F)F)cc3)(C1)C2)C(O)(Cn1cncn1)c1ccc(F)cc1F (stereo in doubt) [Compound 125]	≤ 0.0039	1 (≈ 1.91 µM)	–	–
O[C@H](COc1ccc(C23CC(C(F)(F)C(O)(Cn4cnnn4)c4cc(F)ccc4F)(C2)C3)cc1)C(F)(F)F (stereo in doubt) [Compound 165]	0.03 (≈ 0.0549 µM)	4 (≈ 7.32 µM)	–	–
O[C@@H](COc1ccc(C23CC(C(F)(F)C(O)(Cn4cnnn4)c4cc(F)ccc4F)(C2)C3)cc1)C(F)(F)F (stereo in doubt) [Compound 166]	0.06 (≈ 0.11 µM)	8 (≈ 14.6 µM)	–	–
COc1ccc(C23CC(C(F)(F)[C@](O)(Cn4cnnn4)c4ccc(F)cc4F)(C2)C3)cc1 [Compound 1A]	–	–	4 (≈ 8.92 µM)	0.0078 (≈ 0.0174 µM)
COc1ccc(C23CC(C(F)(F)C(O)(Cn4cnnn4)c4ccc(F)cc4F)(C2)C3)cc1 (stereo not shown) [Compound 1]	0.015 (≈ 0.0335 µM)	8 (≈ 17.8 µM)	–	–
OC(Cn1cncn1)(c1ccc(F)cc1F)C(F)(F)C12CC(c3ccc(OCC(F)(F)F)cc3)(C1)C2 (stereo not shown) [Compound 2]	0.0078 (≈ 0.0151 µM)	1 (≈ 1.94 µM)	–	–
O[C@@](Cn1cnnn1)(c1ccc(F)cc1F)C(F)(F)C12CC(c3ccc(OCC(F)(F)F)cc3)(C1)C2 [Compound 3A]	≤ 0.0039	1 (≈ 1.94 µM)	–	–
OC(Cn1cnnn1)(c1ccc(F)cc1F)C(F)(F)C12CC(c3ccc(OCC(F)(F)F)cc3)(C1)C2 (stereo not shown) [Compound 3]	0.03 (≈ 0.0581 µM)	2 (≈ 3.87 µM)	–	–
O[C@](Cn1cnnn1)(c1ccc(Cl)cc1F)C(F)(F)C12CC(c3ccc(OCC(F)(F)F)cc3)(C1)C2 [Compound 7B]	2 (≈ 3.75 µM)	1 (≈ 1.88 µM)	–	–
Oc1ccc(C23CC(C(F)(F)C(O)(Cn4cncn4)c4ccc(F)cc4F)(C2)C3)cc1 (stereo not shown) [Compound 21]	≤ 0.0039	2 (≈ 4.61 µM)	–	–
OC(Cn1cnnn1)(c1ccc(F)cc1F)C(F)(F)C12CC(c3ccc(OCC(F)F)cc3)(C1)C2 (stereo not shown) [Compound 22]	0.0078 (≈ 0.0156 µM)	4 (≈ 8.03 µM)	–	–
OC(Cn1cncn1)(c1ccc(F)cc1F)C(F)(F)C12CC(c3ccc(OCC(F)F)cc3)(C1)C2 (stereo not shown) [Compound 23]	≤ 0.0039	1 (≈ 2.01 µM)	–	–
OC(Cn1cncn1)(c1ccc(F)cc1F)C(F)(F)C12CC(c3ccc(OC(F)(F)F)cc3)(C1)C2 (stereo not shown) [Compound 25]	0.0078 (≈ 0.0156 µM)	2 (≈ 3.99 µM)	–	–
N#Cc1ccc(C23CC(C(F)(F)C(O)(Cn4cncn4)c4ccc(F)cc4F)(C2)C3)cc1 (stereo not shown) [Compound 27]	≤ 0.0039	1 (≈ 2.26 µM)	–	–
COc1nc(C23CC(C(F)(F)C(O)(Cn4cnnn4)c4ccc(F)cc4F)(C2)C3)cs1 (stereo not shown) [Compound 119]	0.06 (≈ 0.132 µM)	–	–	–
OC(Cn1cnnn1)(c1ccc(F)cc1F)C(F)(F)C12CC(c3cnn(CC(F)(F)F)c3)(C1)C2 (stereo not shown) [Compound 120]	–	–	–	0.125 (≈ 0.255 µM)

SMILES	MIC [1] [µg/mL]	MIC [2] [µg/mL]	MIC Aspergillus fumigatus ATCC MYA-4609 [2] [µg/mL]	MIC Candida albicans ATCC MYA-2876 [1] [µg/mL]
OC(Cn1cnnn1)(c1ccc(F)cc1F)C(F)(F)C12CC(c3ccc(OCC4(F)COC4)nc3)(C1)C2 (stereo not shown) [Compound 122]	0.016 (≈ 0.0306 µM)	–	–	–
OC(Cn1ccnc1)(c1ccc(F)cc1F)C(F)(F)C12CC(c3ccc(OCC(F)(F)F)cc3)(C1)C2 (stereo not shown) [Compound 124]	0.0078 (≈ 0.0152 µM)	–	–	–
CC(C12CC(c3ccc(C#N)cc3)(C1)C2)C(O)(Cn1cncn1)c1ccc(F)cc1F (stereo not shown) [Compound 126]	0.016 (≈ 0.0381 µM)	–	–	–
OC12CC(C(F)(F)C(O)(Cn3cncn3)c3ccc(F)cc3F)(C1)C2 (stereo not shown) [Compound 133]	3 (≈ 8.4 µM)	–	–	–
CCS(=O)(=O)C[C@@H](O)COc1ccc(C23CC(C(F)(F)C(O)(Cn4cnnn4)c4ccc(F)cc4F)(C2)C3)cc1 (stereo partly shown) [Compound 139]	0.06 (≈ 0.103 µM)	–	–	–
CS(=O)(=O)CC(O)COc1ccc(C23CC(C(F)(F)C(O)(Cn4cnnn4)c4ccc(F)cc4F)(C2)C3)cc1 (stereo not shown) [Compound 141]	0.06 (≈ 0.105 µM)	–	–	–
OC(COc1ccc(C23CC(C(F)(F)C(O)(Cn4cnnn4)c4ccc(F)cc4F)(C2)C3)cc1)C1(O)COC1 (stereo not shown) [Compound 146]	0.06 (≈ 0.109 µM)	–	–	–
OC1(COc2ccc(C34CC(C(F)(F)C(O)(Cn5cnnn5)c5ccc(F)cc5F)(C3)C4)cc2)CC1 (stereo not shown) [Compound 147]	0.016 (≈ 0.0317 µM)	–	–	–
N#CC1(COc2ccc(C34CC(C(F)(F)C(O)(Cn5cnnn5)c5ccc(F)cc5F)(C3)C4)cc2)CC1 (stereo not shown) [Compound 148]	0.016 (≈ 0.0312 µM)	–	–	–
OC1(COc2ccc(C34CC(C(F)(F)C(O)(Cn5cnnn5)c5ccc(F)cc5F)(C3)C4)cc2)COC1 (stereo not shown) [Compound 150]	0.03 (≈ 0.0576 µM)	–	–	–
OC(COc1ccc(C23CC(C(F)(F)C(O)(Cn4cnnn4)c4ccc(F)cc4F)(C2)C3)cc1)C1COC1 (stereo not shown) [Compound 152]	0.0078 (≈ 0.0146 µM)	–	–	–
OC(Cn1cnnn1)(c1ccc(F)cc1F)C(F)(F)C12CC(c3ccc(COC(F)F)cc3)(C1)C2 (stereo not shown) [Compound 159]	0.0078 (≈ 0.0156 µM)	–	–	–
OC(Cn1cnnn1)(c1ccc(F)cc1F)C(F)(F)C12CC(c3ccc(COCC(F)(F)F)cc3)(C1)C2 (stereo not shown) [Compound 160]	0.016 (≈ 0.0302 µM)	–	–	–
OC(Cn1cnnn1)(c1ccc(F)cc1F)C(F)(F)C12CC(c3ccc(CNCC(F)(F)F)cc3)(C1)C2 (stereo not shown) [Compound 161]	0.016 (≈ 0.0302 µM)	–	–	–
CN1CCN(c2ccc(C34CC(C(F)(F)C(O)(Cn5cnnn5)c5ccc(F)cc5F)(C3)C4)cc2)CC1 (stereo not shown) [Compound 162]	0.03 (≈ 0.0581 µM)	–	–	–
O=S1(=O)CCC(c2ccc(C34CC(C(F)(F)C(O)(Cn5cnnn5)c5ccc(F)cc5F)(C3)C4)cc2)CC1 (stereo not shown) [Compound 163]	0.0078 (≈ 0.0142 µM)	–	–	–

The next lines start with results.

MIC [1] [µg/mL]	MIC [2] [µg/mL]	MIC Aspergillus fumigatus ATCC MYA-4609 [2] [µg/mL]	SMILES	MIC Candida albicans ATCC MYA-2876 [1] [µg/mL]
≤ 0.0039	0.5 (≈ 0.955 µM)	–	C[C@H](C12CC(c3ccc(OC[C@H](O)C(F)(F)F)cc3)(C1)C2)[C@](O)(Cn1cncn1)c1ccc(F)cc1F (relative stereo) [Compound 125A]	–
≤ 0.0039	0.5 (≈ 0.917 µM)	–	O[C@H](COc1ccc(C23CC(C(F)(F)[C@](O)(Cn4cncn4)c4ccc(F)cc4F)(C2)C3)cc1)C(F)(F)F (relative stereo) [Compound 132A]	–
≤ 0.0039	4 (≈ 7.14 µM)	–	O[C@H](COc1ccc(C23CC(C(F)(F)[C@](O)(Cn4cnnn4)c4ccc(F)cc4F)(C2)C3)cc1)CC(F)(F)F (relative stereo) [Compound 142A]	–
≤ 0.0039	4 (≈ 7.14 µM)	–	O[C@@H](COc1ccc(C23CC(C(F)(F)[C@](O)(Cn4cnnn4)c4ccc(F)cc4F)(C2)C3)cc1)CC(F)(F)F (relative stereo) [Compound 142B]	–
≤ 0.0039	2 (≈ 3.86 µM)	–	O[C@H](COc1ccc(C23CC(C(F)(F)[C@](O)(Cn4cnnn4)c4ccc(F)cc4F)(C2)C3)cc1)C1CC1 (relative stereo) [Compound 144A]	–
≤ 0.0039	4 (≈ 7.71 µM)	–	O[C@@H](COc1ccc(C23CC(C(F)(F)[C@](O)(Cn4cnnn4)c4ccc(F)cc4F)(C2)C3)cc1)C1CC1 (relative stereo) [Compound 144B]	–
≤ 0.0039	4 (≈ 7.6 µM)	–	CS(=O)(=O)COc1ccc(C23CC(C(F)(F)[C@](O)(Cn4cnnn4)c4ccc(F)cc4F)(C2)C3)cc1 (stereo in doubt) [Compound 131A]	–
≤ 0.0039	2 (≈ 4.01 µM)	–	O[C@@](Cn1cnnn1)(c1ccc(F)cc1F)C(F)(F)C12CC(c3ccc(COC(F)F)cc3)(C1)C2 (stereo in doubt) [Compound 159A]	–
≤ 0.0039	1 (≈ 2.93 µM)	–	O[C@@](Cn1cncn1)(c1ccc(F)cc1F)C(F)(F)C12CC(C1)C2 [Compound 10A]	–
≤ 0.0039	1 (≈ 2.31 µM)	–	Oc1ccc(C23CC(C(F)(F)[C@](O)(Cn4cncn4)c4ccc(F)cc4F)(C2)C3)cc1 [Compound 21A]	–
0.0078 (≈ 0.0156 µM)	2 (≈ 4.01 µM)	–	O[C@@](Cn1cnnn1)(c1ccc(F)cc1F)C(F)(F)C12CC(c3ccc(OCC(F)F)cc3)(C1)C2 [Compound 22A]	–
≤ 0.0039	0.5 (≈ 1.13 µM)	–	N#Cc1ccc(C23CC(C(F)(F)[C@](O)(Cn4cncn4)c4ccc(F)cc4F)(C2)C3)cc1 [Compound 27A]	–
0.06 (≈ 0.11 µM)	–	–	O[C@@H](COc1ccc(C23CC(C(F)(F)[C@](O)(Cn4cnnn4)c4cc(F)ccc4F)(C2)C3)cc1)C(F)(F)F [Compound 166A]	–
